Each structure is given as a SMILES string.

The nature of this data set: in vitro. The conditions noted are these: human, hela cells, % viability.
Turning to `Cn1ccc(N2CCCC(NC(=O)c3scnc3C(C)(C)C)C2=O)n1` (stereo not drawn) [CBK305453], the viability (commonly a read-out of living cells in per cent, often relative to untreated cells) at 28.5 h, 10 µM was 94.9%.

As to `CCn1nccc1N1CCCC(NC(=O)CCc2ccccc2Cl)C1=O` (stereo not drawn) [CBK305455], the viability at 28.5 h, 10 µM is 113%.

Regarding `CC(C)Cn1cnc(S(=O)(=O)N2CCC(OCc3ccncc3)C2)c1` (stereo not drawn) [CBK305456], the viability at 28.5 h, 10 µM is 105%.

Turning to `Cc1nc(C)c(CNC(=O)NC2CCCN(c3ccn(C)n3)C2=O)s1` (stereo not drawn) [CBK305457], the viability at 28.5 h, 10 µM came out at 86%.

Turning to `CSc1nnc(CCCNC(=O)c2cccc(C#N)c2)n1C1CCCC1` [CBK305459], the viability at 28.5 h, 10 µM came to 80.9%.

In the case of `CN(C)c1ncc(CNc2nc(O)c3c(n2)CCCC3)cn1` [CBK305460], the viability at 28.5 h, 10 µM came to 89.3%.

In the case of `CN1CCC(CNS(=O)(=O)c2cccc3c2OCC3)CC1=O` (stereo not drawn) [CBK305465], the viability at 28.5 h, 10 µM turned out to be 114%.

`Cn1nc(C(C)(C)C)c2cc(C(=O)N3CCn4nccc43)cnc21` [CBK305466]: the viability at 28.5 h, 10 µM worked out at 93.3%.

In the case of `CC1(C)CC(NC(=O)c2cc3cccnc3[nH]2)CCO1` (stereo not drawn) [CBK305467], the viability at 28.5 h, 10 µM turned out to be 82.3%.

As to `CC(=O)Nc1cccc(-n2nnnc2SCc2cnn(C)c2)c1` [CBK305471], the viability at 28.5 h, 10 µM is 101%.

Turning to `CCOC(=O)C(NC(=O)C1CCC(=O)N1)c1cccc(C)c1C` (stereo not drawn) [CBK305472], the viability at 28.5 h, 10 µM came to 93.8%.

For the compound `O=C(NC1CCN(CC(F)(F)F)CC1)c1cnc(-c2ccccc2)s1` [CBK305474], the viability at 28.5 h, 10 µM came out at 98.4%.

With `Cc1csc(C2CN(Cc3cn(C)c(=O)n(C)c3=O)CCO2)n1` (stereo not drawn) [CBK305475], the viability at 28.5 h, 10 µM was 86.6%.

On to `COCCc1ccccc1NC1CCN(c2nccs2)CC1` [CBK305476], for which the viability at 28.5 h, 10 µM is 91.2%.

On to `COCCn1c(SC(C)C(=O)NC2CC2)nc2ccc(Br)cc2c1=O` (stereo not drawn) [CBK305481], for which the viability at 28.5 h, 10 µM is 108%.

Regarding `Cc1ccc(CS(=O)(=O)N(C)C2CCN(C)C(C)C2)c(F)c1` (stereo not drawn) [CBK305484], the viability at 28.5 h, 10 µM was 90.4%.

Turning to `CCOc1cc(NC2CCN(C(=O)NCC(F)F)CC2)ncn1` [CBK305485], the viability at 28.5 h, 10 µM amounted to 85.6%.

For `Cc1[nH]c2ccc(CNC(=O)NC3CCCc4cn[nH]c43)cc2c1C` (stereo not drawn) [CBK305488], the viability at 28.5 h, 10 µM is 89.8%.

In the case of `Cc1nnc(CS(=O)(=O)Cc2csc(C(C)(C)C)n2)n1C1CC1` [CBK305489], the viability at 28.5 h, 10 µM was 109%.

As for `Cc1c(C(=O)N2CCCCC2C(N)=O)nnn1-c1cccc(Cl)c1` (stereo not drawn) [CBK305490], the viability at 28.5 h, 10 µM came out at 106%.

For the compound `Cc1cc(O)nc(C(C)N2CCCN(CC(F)(F)F)CC2)n1` (stereo not drawn) [CBK305491], the viability at 28.5 h, 10 µM amounted to 88.6%.

In the case of `O=C(NCC1(CCO)CCOC1)c1c[nH]nc1-c1cc2ccccc2o1` (stereo not drawn) [CBK305492], the viability at 28.5 h, 10 µM was 103%.

Regarding `CC(NC(=O)CCc1cnn(C)c1)c1nc(-c2ccncc2)cs1` (stereo not drawn) [CBK305496], the viability at 28.5 h, 10 µM was found to be 91.4%.

With `Cc1nc(CCNc2ccc(-c3nc(C)c(C)c(=O)[nH]3)cn2)cs1` [CBK305497], the viability at 28.5 h, 10 µM amounted to 107%.

`CCOC(=O)C(Cc1ccccc1)NC(=O)c1cn[nH]c1C` (stereo not drawn) [CBK305499]: the viability at 28.5 h, 10 µM stood at 99.7%.

Turning to `COc1ccc(C)cc1-n1ccc(C(=O)NC2CCSCC2)n1` [CBK305502], the viability at 28.5 h, 10 µM is 94.6%.

Turning to `CN(CCNC(=O)Nc1ccc2c(c1)oc(=O)n2C)C1CCCC1` [CBK305503], the viability at 28.5 h, 10 µM turned out to be 95.1%.

Take `CCOc1cc(NC2CCN(C(=O)C3CCCCC3(C)C)CC2)ncn1` (stereo not drawn) [CBK305505]: the viability at 28.5 h, 10 µM is 105%.

In the case of `CCOc1cc(NC2CCN(C(=O)CC3CCCCC3)CC2)ncn1` [CBK305506], the viability at 28.5 h, 10 µM worked out at 104%.

For the compound `Cc1nc(C)c(S(=O)(=O)Nc2ccccc2-c2nnnn2C(C)C)s1` [CBK305508], the viability at 28.5 h, 10 µM was 96.3%.

In the case of `CC(C)n1nnnc1-c1ccccc1NS(=O)(=O)C1CC1` [CBK305509], the viability at 28.5 h, 10 µM came out at 97.7%.

With `Cc1cc(C)n(CC(=O)NCC(c2c(F)cccc2F)N(C)C)n1` (stereo not drawn) [CBK305510], the viability at 28.5 h, 10 µM came out at 96.7%.

For `CCSc1nnnn1-c1cccc(NC(C)=O)c1` [CBK305511], the viability at 28.5 h, 10 µM worked out at 94.4%.

Values taken from article PMC12040169 (PLOS Biology, 2025).
